Here are results for 20 compounds from patent US9580430B2, “9H-pyrimido[4,5-B]indoles and related analogs as BET bromodomain inhibitors” (THE REGENTS OF THE UNIVERSITY OF MICHIGAN, priority 2014, dated 2017).

The target of one assay is T1, recombinant BRD4 BD1 (Homo sapiens, UniProt O60885).
T1 construct: for recombinant BRD4 BD1 and BRD4 BD2 proteins
Nature of the assay: Competitive fluorescence-polarization (FP) binding assay, BRD4 BD1. Also: probe 1.5 nM. Conditions: competitive FP assay; protein 10 nM, probe […]; read-out: IC50 (nM) BRD4 BD1. Summed up: (§1)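 Buffer: 100 mM potassium phosphate, pH 6.5, 0.01% Triton X-100; compounds added in buffer with 40% ethylene glycol to preformed complex of fluorescent probe with BRD4 BD1 (10 nM final) or BD2 (6 nM final). After 30 min at room temperature, polarization read. IC50 from nonlinear fits of competition curves, with Ki.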

For another assay, the target named is T2, recombinant BRD4 BD2 (Homo sapiens, UniProt O60885).
T2 construct: for recombinant BRD4 BD1 and BRD4 BD2 proteins
Nature of the assay: Competitive fluorescence-polarization (FP) binding assay, BRD4 BD2. Also: probe 1.5 nM. To be noted: competitive FP assay; protein 6 nM, probe […]; read-out: IC50 (nM) BRD4 BD2. Put shortly:
as §1

For a further assay, the system named is MOLM-13. Nature of the assay: Cell growth inhibition, MOLM-13 leukemia cells (CellTiter-Glo). The format is cell-based. To be noted: Homo sapiens, MOLM-13, 96 h; 4 days; read-out: IC50 (nM) MOLM-13 Cell Line (CellTiter-Glo assay). Summed up: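 Luminescent ATP-based viability (CellTiter-Glo, 10-20 min at room temperature) in compound-treated MOLM-13 cells; the half-maximal inhibitory concentration was calculated from the readout.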
In general terms: ATP-based viability assays read luminescence as a measure of living cells.

A further assay concerns MDA-MB-436. Nature of the assay: Cell growth inhibition, MDA-MB-436 breast cancer cells (WST-8). The format is cell-based. Conditions: Homo sapiens, MDA-MB-436, 96 h; 4 days; read-out: IC50 (nM) MDA-MB-436 Cell Line (WST assay). Summed up:
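IC50 was computed from WST-8-based cell counting in MDA-MB-436 cells, with absorbance read at 450 nm.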
In general terms: Tetrazolium assays rely on reduction of a dye to a coloured formazan, in cell work by metabolically active cells.

As for `COc1cc2c(cc1-c1c(C)noc1C)[nH]c1nc(C)nc(Nc3cc(C4CCC4)nn3C)c12` [Cpd. No. 136, N-(3-Cyclobutyl-1-methyl-1H-pyrazol-5-yl)-7-(3,5-dimethylisoxazol-4-yl)-6-methoxy-2-methyl-9H-pyrimido[4,5-b]indol-4-amine], the 50% inhibitory concentration (IC50) – broadly, the concentration at which inhibition is half-maximal – came out at 10.5 nM on recombinant BRD4 BD1, 6.9 nM at recombinant BRD4 BD2, 26.6 nM with MOLM-13 and 63.2 nM in the assay on MDA-MB-436.

As to `COc1cc2c(cc1-c1c(C)noc1C)[nH]c1nc(C)nc(Nc3c4c(nn3C(C)C)CCCC4)c12` [Cpd. No. 138, 7-(3,5-Dimethylisoxazol-4-yl)-N-(2-isopropyl-4,5,6,7-tetrahydro-2H-indazol-3-yl)-6-methoxy-2-methyl-9H-pyrimido[4,5-b]indol-4-amine], the concentration for half-maximal inhibition (IC50) is 4.2 nM at recombinant BRD4 BD1, 1.2 nM at recombinant BRD4 BD2, 5.7 nM in the assay on MOLM-13 and 30.3 nM in the assay on MDA-MB-436.

On to `COc1cc2c(cc1-c1c(C)noc1C)[nH]c1nc(C)nc(Nc3cnn4c3CCCC4)c12` [Cpd. No. 139, 7-(3,5-Dimethylisoxazol-4-yl)-6-methoxy-2-methyl-N-(4,5,6,7-tetrahydropyrazolo[1,5-a]pyridin-3-yl)-9H-pyrimido[4,5-b]indol-4-amine], for which the IC50 at recombinant BRD4 BD1 came out at 16.3 nM; on recombinant BRD4 BD2, 16.5 nM; with MOLM-13, 49.2 nM; with MDA-MB-436, 110 nM.

Turning to `COc1cc2c(cc1-c1c(C)noc1C)[nH]c1nc(C)nc(Nc3c(C4CC4)c(C)nn3C)c12` [Cpd. No. 140, N-(4-Cyclopropyl-1,3-dimethyl-1H-pyrazol-5-yl)-7-(3,5-dimethylisoxazol-4-yl)-6-methoxy-2-methyl-9H-pyrimido[4,5-b]indol-4-amine], the IC50 at recombinant BRD4 BD1 turned out to be 39.3 nM; on recombinant BRD4 BD2, 95 nM; in the assay with MOLM-13 it was 120 nM; with MDA-MB-436, 210 nM.

As for `CCn1nc2c(c1Nc1nc(C)nc3[nH]c4cc(-c5c(C)noc5C)c(OC)cc4c13)CCCC2` [Cpd. No. 142, 7-(3,5-Dimethylisoxazol-4-yl)-N-(2-ethyl-4,5,6,7-tetrahydro-2H-indazol-3-yl)-6-methoxy-2-methyl-9H-pyrimido[4,5-b]indol-4-amine], the half-inhibitory concentration (IC50) on recombinant BRD4 BD1 was determined as 4.5 nM; on recombinant BRD4 BD2, 0.5 nM; in the assay on MOLM-13, 1.1 nM; in the assay with MDA-MB-436 it was 7.3 nM.

`CCn1nc(C)c(C2CC2)c1Nc1nc(C)nc2[nH]c3cc(-c4c(C)noc4C)c(OC)cc3c12` [Cpd. No. 143, N-(4-Cyclopropyl-1-ethyl-3-methyl-1H-pyrazol-5-yl)-7-(3,5-dimethylisoxazol-4-yl)-6-methoxy-2-methyl-9H-pyrimido[4,5-b]indol-4-amine]: the IC50 amounted to 27.9 nM on recombinant BRD4 BD1, 57.7 nM on recombinant BRD4 BD2, 98 nM in the assay with MOLM-13 and 175 nM with MDA-MB-436.

Turning to `CCn1nc(C2CC2)c(C)c1Nc1nc(C)nc2[nH]c3cc(-c4c(C)noc4C)c(OC)cc3c12` [Cpd. No. 145, N-(3-Cyclopropyl-1-ethyl-4-methyl-1H-pyrazol-5-yl)-7-(3,5-dimethylisoxazol-4-yl)-6-methoxy-2-methyl-9H-pyrimido[4,5-b]indol-4-amine], the half-maximal inhibitory concentration (IC50) on recombinant BRD4 BD1 stood at 18.9 nM; on recombinant BRD4 BD2, 56.9 nM; with MOLM-13, 69.5 nM; with MDA-MB-436, 170 nM.

Regarding `CCn1nc(C(F)(F)F)cc1Nc1nc(C)nc2[nH]c3cc(-c4c(C)noc4C)c(OC)cc3c12` [Cpd. No. 146, 7-(3,5-Dimethylisoxazol-4-yl)-N-(1-ethyl-3-(trifluoromethyl)-1H-pyrazol-5-yl)-6-methoxy-2-methyl-9H-pyrimido[4,5-b]indol-4-amine], the half-inhibitory concentration (IC50) at recombinant BRD4 BD1 is 13.7 nM; at recombinant BRD4 BD2, 7.7 nM; with MOLM-13, 26 nM; in the assay with MDA-MB-436, 39.2 nM.

For the compound `COc1cc2c(cc1-c1c(C)noc1C)[nH]c1nc(C)nc(Nc3c(C)c(C4CC4)nn3C)c12` [Cpd. No. 147, N-(3-Cyclopropyl-1,4-dimethyl-1H-pyrazol-5-yl)-7-(3,5-dimethylisoxazol-4-yl)-6-methoxy-2-methyl-9H-pyrimido[4,5-b]indol-4-amine], the half-maximal inhibitory concentration (IC50) on recombinant BRD4 BD1 was determined as 59.9 nM; at recombinant BRD4 BD2, 93.7 nM; with MOLM-13, 201 nM; in the assay with MDA-MB-436 it was 319 nM.

With `COc1cc2c(cc1-c1c(C)noc1C)[nH]c1nc(C)nc(Nc3c4c(nn3C3CC3)CCC4)c12` [Cpd. No. 148, N-(2-Cyclopropyl-2,4,5,6-tetrahydrocyclopenta[c]pyrazol-3-yl)-7-(3,5-dimethylisoxazol-4-yl)-6-methoxy-2-methyl-9H-pyrimido[4,5-b]indol-4-amine], the half-maximal inhibitory concentration (IC50) at recombinant BRD4 BD1 was 7.9 nM; at recombinant BRD4 BD2 it was 5 nM; with MOLM-13, 3.4 nM; in the assay with MDA-MB-436, 20.4 nM.

Turning to `COc1cc2c(cc1-c1c(C)noc1C)[nH]c1nc(C)nc(Nc3cc(C4CC4)nn3C(C)C)c12` [Cpd. No. 149, N-(3-Cyclopropyl-1-isopropyl-1H-pyrazol-5-yl)-7-(3,5-dimethylisoxazol-4-yl)-6-methoxy-2-methyl-9H-pyrimido[4,5-b]indol-4-amine], the IC50 is 6.8 nM at recombinant BRD4 BD1, 5.4 nM on recombinant BRD4 BD2, 7.2 nM with MOLM-13 and 14.2 nM with MDA-MB-436.

`COc1cc2c(cc1-c1c(C)noc1C)[nH]c1nc(C)nc(Nc3c4c(nn3CCO)CCC4)c12` [Cpd. No. 150, 2-(3-((7-(3,5-Dimethylisoxazol-4-yl)-6-methoxy-2-methyl-9H-pyrimido[4,5-b]indol-4-yl)amino)-5,6-dihydrocyclopenta[c]pyrazol-2(4H)-yl)ethanol]: the IC50 on recombinant BRD4 BD1 was determined as 9.6 nM; at recombinant BRD4 BD2, 7.2 nM; with MOLM-13 it was 7.2 nM; with MDA-MB-436 it was 29.8 nM.

For `COc1cc2c(cc1-c1c(C)noc1C)[nH]c1nc(C)nc(Nc3cc(C4CC4)nn3C3CC3)c12` [Cpd. No. 152, N-(1,3-Dicyclopropyl-1H-pyrazol-5-yl)-7-(3,5-dimethylisoxazol-4-yl)-6-methoxy-2-methyl-9H-pyrimido[4,5-b]indol-4-amine], the IC50 on recombinant BRD4 BD1 worked out at 10.6 nM; on recombinant BRD4 BD2 it was 5.6 nM; in the assay with MOLM-13, 19 nM; with MDA-MB-436 it was 34 nM.

Turning to `COc1cc2c(cc1-c1c(C)noc1C)[nH]c1nc(C)nc(Nc3cn(C)cn3)c12` [Cpd. No. 166, 7-(3,5-dimethylisoxazol-4-yl)-6-methoxy-2-methyl-N-(1-methyl-1H-imidazol-4-yl)-9H-pyrimido[4,5-b]indol-4-amine], the IC50 on recombinant BRD4 BD1 turned out to be 119 nM; at recombinant BRD4 BD2, 161 nM; in the assay with MOLM-13, 504 nM; in the assay on MDA-MB-436, 1420 nM.

Consider `CCc1nn(C)c(Nc2nc(C)nc3[nH]c4cc(-c5c(C)noc5C)c(OC)cc4c23)c1C` [Cpd. No. 169, 7-(3,5-dimethylisoxazol-4-yl)-N-(3-ethyl-1,4-dimethyl-1H-pyrazol-5-yl)-6-methoxy-2-methyl-9H-pyrimido[4,5-b]indol-4-amine], for which the IC50 was 14.3 nM at recombinant BRD4 BD1, 23 nM at recombinant BRD4 BD2, 63.3 nM in the assay with MOLM-13 and 93.9 nM in the assay with MDA-MB-436.

Consider `COc1cc2c(cc1-c1c(C)noc1C)[nH]c1nc(C)nc(Nc3cnn(C)c3C)c12` [Cpd. No. 170, N-(1,5-dimethyl-1H-pyrazol-4-yl)-7-(3,5-dimethylisoxazol-4-yl)-6-methoxy-2-methyl-9H-pyrimido[4,5-b]indol-4-amine], for which the IC50 at recombinant BRD4 BD1 was found to be 44.9 nM; at recombinant BRD4 BD2, 56.5 nM; in the assay on MOLM-13, 131 nM; in the assay on MDA-MB-436, 222 nM.

Regarding `COc1cc2c(cc1-c1c(C)noc1C)[nH]c1nc(C)nc(Nc3cnc(C)n3C)c12` [Cpd. No. 171, N-(1,2-dimethyl-1H-imidazol-5-yl)-7-(3,5-dimethylisoxazol-4-yl)-6-methoxy-2-methyl-9H-pyrimido[4,5-b]indol-4-amine], the IC50 at recombinant BRD4 BD1 is 153 nM; at recombinant BRD4 BD2, 79.5 nM; in the assay on MOLM-13, 609 nM; with MDA-MB-436 it was 1530 nM.

For `COc1cc2c(cc1-c1c(C)noc1C)[nH]c1nc(C)nc(Nc3ccnn3C)c12` [Cpd. No. 172, 7-(3,5-dimethylisoxazol-4-yl)-6-methoxy-2-methyl-N-(1-methyl-1H-pyrazol-5-yl)-9H-pyrimido[4,5-b]indol-4-amine], the IC50 at recombinant BRD4 BD1 is 57.2 nM; on recombinant BRD4 BD2 it was 49.5 nM; in the assay on MOLM-13, 453 nM; with MDA-MB-436 it was 634 nM.

Take `CCn1nccc1Nc1nc(C)nc2[nH]c3cc(-c4c(C)noc4C)c(OC)cc3c12` [Cpd. No. 173, 7-(3,5-dimethylisoxazol-4-yl)-N-(1-ethyl-1H-pyrazol-5-yl)-6-methoxy-2-methyl-9H-pyrimido[4,5-b]indol-4-amine]: the IC50 on recombinant BRD4 BD1 worked out at 31.7 nM; on recombinant BRD4 BD2, 25.1 nM; in the assay with MOLM-13 it was 121 nM; in the assay on MDA-MB-436, 198 nM.

With `COc1cc2c(cc1-c1c(C)noc1C)[nH]c1nc(C)nc(Nc3c(C#N)cnn3C)c12` [Cpd. No. 174, 5-((7-(3,5-dimethylisoxazol-4-yl)-6-methoxy-2-methyl-9H-pyrimido[4,5-b]indol-4-yl)amino)-1-methyl-1H-pyrazole-4-carbonitrile], the concentration for half-maximal inhibition (IC50) came to 142 nM at recombinant BRD4 BD1, 117 nM at recombinant BRD4 BD2, 108 nM in the assay on MOLM-13 and 118 nM in the assay on MDA-MB-436.
